Source: patent EP4755888A1 (ILAb Co., Ltd., priority 2023, dated 2025)

target: PD-1/PD-L1 (Homo sapiens, UniProt Q9NZQ7); assay: TR-FRET PD-1/PD-L1 binding inhibition at the molecular level (free proteins); details: Tag1-PD-L1 and Tag2-PD-1 proteins, twelve concentrations from 200 nM, 2 hours at room temperature, read-out: FRET assay (IC50)
Procedure, shortened: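 HTRF read-out at 665/620 nm after 2 h at room temperature. Detection used anti-Tag1 Eu cryptate plus anti-Tag2 XL665 antibodies. Tagged PD-L1 and PD-1 proteins were pre-mixed with compound across twelve […] 1:2 dilutions starting at 200 nM.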

PD-1/PD-L1, sequence (Q9NZQ7 19-238 limits assumed): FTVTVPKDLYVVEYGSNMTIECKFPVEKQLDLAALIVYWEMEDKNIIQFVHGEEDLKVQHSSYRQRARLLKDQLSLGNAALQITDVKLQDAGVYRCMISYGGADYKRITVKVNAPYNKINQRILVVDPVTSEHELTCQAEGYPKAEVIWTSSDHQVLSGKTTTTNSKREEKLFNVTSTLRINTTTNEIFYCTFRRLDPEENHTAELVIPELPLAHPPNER

Row | Compound | IC50
1 | Cn1c(C(=O)Nc2cccc(-c3cccc(NC(=O)c4cc5n(n4)CCCC5NCCO)c3Cl)c2Cl)nc2c1CCN(CCC13CCC(C(=O)O)(CC1)C3)C2 (stereo not shown) [Compound 53, 4-(2-(2-((2,2'-dichloro-3'-(4-((2-hydroxyethyl)amino)-4,5,6,7-tetrahydropyrazolo[1,5-a]pyridine-2-carboxamido)-[1,1'-biphenyl]-3-yl)carbamoyl)-1-methyl-6,7-dihydro-1H-imidazo[4,5-c]pyridin-5(4H)-yl)ethyl)bicyclo[2.2.1]heptane-1-carboxylic acid] | < 10 nM
2 | Cn1c(C(=O)Nc2cccc(-c3cccc(NC(=O)c4cc5n(n4)CCCC5NC[C@@H]4CCC(=O)N4)c3Cl)c2Cl)nc2c1CCN(CCC13CCC(C(=O)O)(CC1)C3)C2 (stereo partly drawn) [Compound 54, 4-(2-(2-((2,2'-dichloro-3'-(4-((((S)-5-oxopyrrolidin-2-yl)methyl)amino)-4,5,6,7-tetrahydropyrazolo[1,5-a]pyridine-2-carboxamido)-[1,1'-biphenyl]-3-yl)carbamoyl)-1-methyl-6,7-dihydro-1H-imidazo[4,5-c]pyridin-5(4H)-yl)ethyl)bicyclo[2.2.1]heptane-1-carboxylic acid] | 10 to 100 nM
3 | Cn1c(C(=O)Nc2cccc(-c3cccc(NC(=O)c4cc5n(n4)CCCC5NCC(=O)O)c3Cl)c2Cl)nc2c1CCN(CCC13CCC(C(=O)O)(CC1)C3)C2 (stereo not shown) [Compound 56, 4-(2-(2-((3'-(4-((carboxymethyl)amino)-4,5,6,7-tetrahydropyrazolo[1,5-a]pyridine-2-carboxamido)-2,2'-dichloro-[1,1'-biphenyl]-3-yl)carbamoyl)-1-methyl-6,7-dihydro-1H-imidazo[4,5-c]pyridin-5(4H)-yl)ethyl)bicyclo[2.2.1]heptane-1-carboxylic acid] | < 10 nM
4 | Cn1c(C(=O)Nc2cccc(-c3cccc(NC(=O)c4cc5n(n4)CCCC5N4CC[C@@H](C(=O)O)C4)c3Cl)c2Cl)nc2c1CCN(CCC13CCC(C(=O)O)(CC1)C3)C2 (stereo partly drawn) [Compound 57, (3R)-1-(2-((3'-(5-(2-(4-carboxybicyclo[2.2.1]heptan-1-yl)ethyl)-1-methyl-4,5,6,7-tetrahydro-1H-imidazo[4,5-c]pyridine-2-carboxamido)-2,2'-dichloro-[1,1'-biphenyl]-3-yl)carbamoyl)-4,5,6,7-tetrahydropyrazolo[1,5-a]pyridin-4-yl)pyrrolidine-3-carboxylic acid] | < 10 nM
5 | Cn1c(C(=O)Nc2cccc(-c3cccc(NC(=O)c4cc5n(n4)CCCC5N4CCC(O)CC4)c3Cl)c2Cl)nc2c1CCN(CCC13CCC(C(=O)O)(CC1)C3)C2 (stereo not shown) [Compound 58, 4-(2-(2-((2,2'-dichloro-3'-(4-(4-hydroxypiperidin-1-yl)-4,5,6,7-tetrahydropyrazolo[1,5-a]pyridine-2-carboxamido)-[1,1'-biphenyl]-3-yl)carbamoyl)-1-methyl-6,7-dihydro-1H-imidazo[4,5-c]pyridin-5(4H)-yl)ethyl)bicyclo[2.2.1]heptane-1-carboxylic acid] | 10 to 100 nM
6 | Cn1c(C(=O)Nc2cccc(-c3cccc(NC(=O)c4cc5n(n4)CCCC5N4CCC(C(=O)O)CC4)c3Cl)c2Cl)nc2c1CCN(CCC13CCC(C(=O)O)(CC1)C3)C2 (stereo not shown) [Compound 59, 1-(2-((3'-(5-(2-(4-carboxybicyclo[2.2.1]heptan-1-yl)ethyl)-1-methyl-4,5,6,7-tetrahydro-1H-imidazo[4,5-c]pyridine-2-carboxamido)-2,2'-dichloro-[1,1'-biphenyl]-3-yl)carbamoyl)-4,5,6,7-tetrahydropyrazolo[1,5-a]pyridin-4-yl)piperidine-4-carboxylic acid] | < 10 nM
7 | Cn1c(C(=O)Nc2cccc(-c3cccc(NC(=O)c4cc5n(n4)CCCC5NC(C)(C)C(=O)O)c3Cl)c2Cl)nc2c1CCN(CCC13CCC(C(=O)O)(CC1)C3)C2 (stereo not shown) [Compound 60, 4-(2-(2-((3'-(4-((2-carboxypropan-2-yl)amino)-4,5,6,7-tetrahydropyrazolo[1,5-a]pyridine-2-carboxamido)-2,2'-dichloro-[1,1'-biphenyl]-3-yl)carbamoyl)-1-methyl-6,7-dihydro-1H-imidazo[4,5-c]pyridin-5(4H)-yl)ethyl)bicyclo[2.2.1]heptane-1-carboxylic acid] | < 10 nM
8 | Cc1c(NC(=O)c2cc3n(n2)CCCC3O)cccc1-c1cccc(-c2nc3cc(CN4CC[C@@H](C(=O)O)C4)cc(C#N)c3o2)c1C (stereo partly drawn) [Compound 61, (3R)-1-((7-cyano-2-(3'-(4-hydroxy-4,5,6,7-tetrahydropyrazolo[1,5-a]pyridine-2-carboxamido)-2,2'-dimethyl-[1,1'-biphenyl]-3-yl)benzo[d]oxazol-5-yl)methyl)pyrrolidine-3-carboxylic acid] | < 10 nM
9 | CC(=O)NCCNC1CCCn2nc(C(=O)Nc3cccc(-c4cccc(-c5nc6cc(CN7CC[C@@H](C(=O)O)C7)cc(C#N)c6o5)c4C)c3C)cc21 (stereo partly drawn) [Compound 62, (3R)-1-((2-(3'-(4-((2-acetamidoethyl)amino)-4,5,6,7-tetrahydropyrazolo[1,5-a]pyridine-2-carboxamido)-2,2'-dimethyl-[1,1'-biphenyl]-3-yl)-7-cyanobenzo[d]oxazol-5-yl)methyl)pyrrolidine-3-carboxylic acid] | < 10 nM
10 | Cc1c(NC(=O)c2cc3n(n2)CCCC3NCCO)cccc1-c1cccc(-c2nc3cc(CN4CC[C@@H](C(=O)O)C4)cc(C#N)c3o2)c1C (stereo partly drawn) [Compound 64, (3R)-1-((7-cyano-2-(3'-(4-((2-hydroxyethyl)amino)-4,5,6,7-tetrahydropyrazolo[1,5-a]pyridine-2-carboxamido)-2,2'-dimethyl-[1,1'-biphenyl]-3-yl)benzo[d]oxazol-5-yl)methyl)pyrrolidine-3-carboxylic acid] | < 10 nM
11 | Cc1c(NC(=O)c2cc3n(n2)CCCC3NC[C@@H]2CCC(=O)N2)cccc1-c1cccc(-c2nc3cc(CN4CC[C@@H](C(=O)O)C4)cc(C#N)c3o2)c1C (stereo partly drawn) [Compound 65, (3R)-1-((7-cyano-2-(2,2'-dimethyl-3'-(4-((((S)-5-oxopyrrolidin-2-yl)methyl)amino)-4,5,6,7-tetrahydropyrazolo[1,5-a]pyridine-2-carboxamido)-[1,1'-biphenyl]-3-yl)benzo[d]oxazol-5-yl)methyl)pyrrolidine-3-carboxylic acid] | < 10 nM
12 | Cc1c(NC(=O)c2cc3n(n2)CCCC3NCC(=O)O)cccc1-c1cccc(-c2nc3cc(CN4CC[C@@H](C(=O)O)C4)cc(C#N)c3o2)c1C (stereo partly drawn) [Compound 66, (3R)-1-((2-(3'-(4-((carboxymethyl)amino)-4,5,6,7-tetrahydropyrazolo[1,5-a]pyridine-2-carboxamido)-2,2'-dimethyl-[1,1'-biphenyl]-3-yl)-7-cyanobenzo[d]oxazol-5-yl)methyl)pyrrolidine-3-carboxylic acid] | < 10 nM
13 | N#Cc1cc(CN2CC[C@@H](C(=O)O)C2)cc2nc(-c3cccc(-c4cccc(NC(=O)c5cc6n(n5)CCCC6O)c4Cl)c3Cl)oc12 (stereo partly drawn) [Compound 67, (3R)-1-((7-cyano-2-(2,2'-dichloro-3'-(4-hydroxy-4,5,6,7-tetrahydropyrazolo[1,5-a]pyridine-2-carboxamido)-[1,1'-biphenyl]-3-yl)benzo[d]oxazol-5-yl)methyl)pyrrolidine-3-carboxylic acid] | < 10 nM
